Tests used:
hDFs = assay: Human iPSC induction, AP-positive colonies; type: cell-based; settings: 1 mM or higher concentration; fibroblasts
Protocol: Human dermal fibroblasts (hDFs) were cultured in Dulbecco's modified Minimal Essential Medium (DMEM; Invitrogen, Carlsbad, Calif.) supplemented with 2 mM L-glutamine (Invitrogen), 10% fetal bovine serum (FBS; Invitrogen), 100 U/ml penicillin and 100 μg/ml streptomycin (Invitrogen). For iPSC induction, DMEM/F-12 medium supplemented with 2 mM L-glutamine (Invitrogen), 1 mM […] (Invitrogen), 1× non-essential amino acids (NEAA; Invitrogen), 20% knock-out serum replacement (KSR; Invitrogen), 100 U/ml penicillin, 100 μg/ml streptomycin (Invitrogen) and 10 ng/ml basic fibroblast growth factor (bFGF; Invitrogen) was used as the reprogramming medium. Human ESC lines and hiPSC lines were maintained in Essential 8 medium (Invitrogen) using Matrigel® Matrix (Corning Life Sciences, Tewksbury, Mass.) and passaged using 0.5 mM EDTA (Invitrogen) for gentle dissociation.
Human iPSCs were generated using lentiviral particles by inducible lentiviral vectors or STEMCCA vectors to introduce the OSKM factors (Oct4, Sox2, Klf4, and c-Myc) into fibroblasts^49. ES-like colonies formed after 3 weeks of viral infection and the observed ES-like colonies were handpicked and transferred onto mouse feeder cells (MEF)-plated or Matrigel-coated tissue culture plates to generate iPSC lines. iPSC colonies were mechanically picked until iPSC lines were established.

[1] = system: human dermal fibroblasts (hDFs); assay: Live cell metabolic analysis (Seahorse XF, OCR/ECAR) in fibroblasts; type: cell-based; settings: 0.2 mM; Y4+SIRT2 KD fibroblasts
Protocol: Oxygen consumption rate (OCR) and extracellular acidification rates (ECAR) were measured using the XFp8 or XF24 analyzer (Seahorse Bioscience, MA) according to the manufacturer's instruction. Briefly, cells were plated into wells of an XF cell culture microplate and incubated at 37° C. in a CO2 incubator for 24 h to ensure attachment. The assay was started after cells were equilibrated for 1 h in XF assay medium supplemented with 10 mM glucose, 5 mM sodium pyruvate and 2 mM glutamine in a non-CO2 incubator. Mitochondrial activity between hDFs and hESCs/parental hDFs and iPSCs were monitored through sequential injections of 1 μM oligomycin, […] FCCP and 1 μM rotenone/antimycin A to calculate basal respiration rates (baseline OCR—rotenone/antimycin A OCR), ATP dependent (basal respiration rate—oligomycin OCR), maximum respiration (FCCP OCR— rotenone/antimycin A OCR), and oxidative reserve (maximum respiration rate—basal respiration rate). Glycolytic processes were measured by serial injections of 10 mM glucose, 1 μM oligomycin, and 100 mM 2-deoxyglucose to calculate basal glycolytic rate, glycolytic capacity (in response to oligomycin), and glycolytic reserve (glycolytic capacity—basal rate). Each plotted value was normalized to total protein quantified using a Bradford protein assay (Bio-Rad).

SIRT1 = molecular target: T1, SIRT1 (Homo sapiens, UniProt Q96EB6); settings: cited from earlier work
T1 sequence (Q96EB6 1-747): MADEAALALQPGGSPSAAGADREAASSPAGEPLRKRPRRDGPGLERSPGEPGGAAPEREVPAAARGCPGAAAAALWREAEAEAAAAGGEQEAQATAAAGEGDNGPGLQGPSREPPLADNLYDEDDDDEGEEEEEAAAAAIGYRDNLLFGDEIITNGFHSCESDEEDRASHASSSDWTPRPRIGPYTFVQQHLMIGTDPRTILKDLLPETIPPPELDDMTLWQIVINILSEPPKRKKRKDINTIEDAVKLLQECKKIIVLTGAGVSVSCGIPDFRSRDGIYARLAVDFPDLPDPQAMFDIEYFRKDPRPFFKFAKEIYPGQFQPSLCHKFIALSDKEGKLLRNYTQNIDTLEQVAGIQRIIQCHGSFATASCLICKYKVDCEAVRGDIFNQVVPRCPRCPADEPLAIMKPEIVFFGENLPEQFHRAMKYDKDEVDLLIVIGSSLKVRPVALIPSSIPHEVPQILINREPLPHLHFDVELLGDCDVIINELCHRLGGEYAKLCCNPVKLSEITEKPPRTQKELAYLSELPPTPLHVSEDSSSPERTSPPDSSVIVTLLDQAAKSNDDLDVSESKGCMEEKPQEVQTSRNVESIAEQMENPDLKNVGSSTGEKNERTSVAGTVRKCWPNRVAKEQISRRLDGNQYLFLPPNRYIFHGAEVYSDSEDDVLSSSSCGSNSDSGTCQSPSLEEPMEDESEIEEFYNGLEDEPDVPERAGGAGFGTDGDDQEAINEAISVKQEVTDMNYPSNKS

[2] = system: hPSCs (H9, H7, hiPSC-1, hiPSC-2); assay: Annexin V/7-AAD staining (apoptosis); type: cell-based, human; settings: pretreatment; hPSCs with Dox-induced SIRT2 OE
PI3K = settings: read-out: IC50 (PI3K inhibitor); cited from earlier work
SIRT3 = molecular target: T2, SIRT3 (Homo sapiens, UniProt Q9NTG7); settings: cited from earlier work
T2 sequence (Q9NTG7 1-399): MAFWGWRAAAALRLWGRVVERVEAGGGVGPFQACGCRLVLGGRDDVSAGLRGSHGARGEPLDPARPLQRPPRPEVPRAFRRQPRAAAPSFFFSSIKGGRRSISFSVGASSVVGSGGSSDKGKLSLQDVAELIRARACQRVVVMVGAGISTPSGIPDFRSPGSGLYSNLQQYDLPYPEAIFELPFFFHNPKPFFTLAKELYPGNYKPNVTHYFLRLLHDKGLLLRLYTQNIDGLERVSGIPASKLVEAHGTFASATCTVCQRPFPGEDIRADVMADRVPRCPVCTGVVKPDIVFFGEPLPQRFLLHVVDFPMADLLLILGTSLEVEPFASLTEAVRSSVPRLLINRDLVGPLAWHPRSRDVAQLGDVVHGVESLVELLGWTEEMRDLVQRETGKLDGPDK

SIRT2 [3] = molecular target: T3, SIRT2 (Homo sapiens, UniProt Q8IXJ6); settings: relative to SIRT1; cited from earlier work
T3 sequence (Q8IXJ6 1-389): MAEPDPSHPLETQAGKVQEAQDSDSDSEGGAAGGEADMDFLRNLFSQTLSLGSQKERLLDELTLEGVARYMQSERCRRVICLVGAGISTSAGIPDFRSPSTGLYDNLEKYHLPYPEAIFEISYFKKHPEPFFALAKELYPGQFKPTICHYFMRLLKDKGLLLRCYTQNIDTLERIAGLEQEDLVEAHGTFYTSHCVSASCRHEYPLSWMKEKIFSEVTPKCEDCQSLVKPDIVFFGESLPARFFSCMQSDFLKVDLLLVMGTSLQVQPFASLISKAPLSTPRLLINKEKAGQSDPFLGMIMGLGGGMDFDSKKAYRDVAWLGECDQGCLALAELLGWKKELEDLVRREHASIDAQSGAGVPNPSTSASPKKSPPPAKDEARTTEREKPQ

SIRT2 [4] = assay: SIRT2 expression by qRT-PCR and western blot after pre-miRNA transfection; type: cell-based, human; settings: fibroblasts transfected with pre-miRNA
Protocol: Samples (50 μg) were loaded onto a 12% SDS-PAGE and separated by electrophoresis followed by transfer onto a piece of Immun-Blot PVDF membrane (Bio-Rad, Hercules, Calif.). After transfer, the membrane was blocked at room temperature with Tris-buffered saline (TBS) containing 0.1% Tween-20 and 5% (w/v) skim milk for 3-5 h and then incubated overnight at 4° C. with primary antibody. The membrane was washed three times with TBS containing 0.05% Tween-20 (TBST) and then incubated for 2 h with the appropriate secondary antibody (Pierce, Rockford, Ill.). After washing twice with TBST and once with TBS, bound antibodies were detected by chemiluminescence using the SuperSignal® West Pico kit (Pierce). […]
Total RNA was extracted from cells by using the Direct-zol RNA purification Kit (Zymo research, Irvine, Calif.) and cDNA was synthesized using the ThermoScript™ RT-PCR system (Invitrogen). For quantitative analysis, qRT-PCR (Bio-Rad) was performed using SsoAdvanced SYBR Green supermix (Bio-Rad) with target genes specific primers. […]

[5] = system: CDS fragments of SIRT2 (MREs); assay: Luciferase reporter assay; type: cell-based, human; settings: 293T cells, psicheck2 SIRT2 CDS fragments
Source text: Human SIRT1 or SIRT2 was PCR-amplified from hESCs (H9) or hDFs, respectively, then cloned into the pGEM®-T Easy vector (Promega, Madison, Wis.). The 2A sequence of the Thoseaasigna virus (T2A)-linked EGFP was amplified from pCXLE-EGFP plasmid (#27082; Addgene, Cambridge, Mass.) by […], cloned into the […] vector. The SIRT1 and SIRT2 fragments were then cut off from the corresponding vectors and inserted into the pGEM-T-T2A-EGFP to generate pGEM-T-SIRT1-T2A-EGFP and pGEM-T-SIRT2-T2A-EGFP, respectively. The SIRT1-T2A-EGFP and SIRT2-T2A-EGFP constructs were confirmed by sequencing and then introduced into the EcoRI site of FUW-tetO vector (Addgene), respectively. Human AldoA-Myc constructs, the AldoA fragment was PCR-amplified from hESCs (H9), and then cloned into the pcDNA3.1-Myc/His vector (Invitrogen). For the psicheck2 constructs, the CDS fragments were cloned in downstream of a Renilla luciferase open reading frame. […]
The Promega dual luciferase assay kit was used to perform the luciferase assay according to the manufacturer's instruction. In brief, cell lysates were analyzed for luciferase activity using the dual luciferase system in which two luciferase enzymes, one (from Renilla reniformis) containing the experimental target sequence and another (from firefly) containing the control. […]

O=CC[C@@H](O)[C@H](O)[C@H](O)CO [2DG, 2-deoxy-glucose]
generation of iPSC-like colonies (hDFs): completely blocked
glycolytic flux [1]: decreased the glycolytic flux in Y4+SIRT2 KD to the level of Y4 only without 2DG

N#C/C(=C\c1ccc(-c2cc(Cl)ccc2Cl)o1)C(=O)Nc1cccc2ncccc12 [AGK2]
effect on SIRT1 (SIRT1; at 10-fold higher levels than SIRT2 IC50): minimally affects

CC(=O)N[C@@H](CS)C(=O)O [N-acetyl-L-Cysteine]
SIRT2-induced cell death [2]: rescued

O=c1c(O)c(-c2ccc(O)c(O)c2)oc2cc(O)cc(O)c12 [Quercetin]
IC50 (PI3K): 2.4 to 5.4 µM

O=C(Nc1ccccc1-c1cn2c(CN3CCNCC3)csc2n1)c1cnc2ccccc2n1 [SRT1720]
fold less potent for SIRT3 (SIRT3; relative to SIRT1): > 230 fold
EC50 (SIRT1; cell-free assay, read-out: EC50 (SIRT1 activator)): 0.16 µM
fold less potent for SIRT2 (SIRT2 [3]): > 230 fold

CN(C)CCCCC(=O)Nc1ccc(NC(=S)NC(=O)c2ccc(C(C)(C)C)cc2)cc1 [Tenovin-6]
IC50 (SIRT3; purified human SIRT3 in vitro, read-out: IC50 protein deacetylase activity of SIRT3): 67 µM

CCCCCCCCCCCCCC(=S)NCCCC[C@H](NC(=O)OCc1ccccc1)C(=O)Nc1ccccc1 [Thiomyristoyl]
inhibition of SIRT3 (SIRT3; at 200 μM): does not inhibit SIRT3 even at 200 μM

pre-miR-200c-5p: precursor miRNA oligomer of miR-200c-5p, CGUCUUACCCAGCAGUGUUUGG (SEQ ID NO: 1) (further chemistry not given here; listed as Homo sapiens)
SIRT2 expression (mRNA and protein) (SIRT2 [4]): significantly decreased
reporter expression of both MREs [5]: significantly decreased

— US20190376046A1, “METHODS FOR MANIPULATING CELL FATE” (The McLean Hospital Corporation, priority 2017, published 2019)
